The record followed here is patent US20100190688A1, “Tetrapeptide analogs” (priority 2004, published 2010).

Test [1] addresses T1, BIR3-mediated Caspase-9 inhibition (UniProt Q9R0I6).
T1 construct: Nothing is printed for this assay
Nature of the test: Caspase-9 rescue assay (relief of BIR3-mediated Caspase-9 inhibition). The note with it: average EC50, substrate Ac-LEHD-amc, pH 6.5. It counts as biochemical, human Caspase-9; Rat or Chicken BIR3. As for the experimental part: Additionally the compounds and compositions can be evaluated for their ability to achieve relief of BIR3-mediated Caspase-9 inhibition by measuring Caspase-9 reactivation. The fluorogenic substrate Ac-LEHD-7-amido-4-methylcoumarin is used in these methods. EC50 values of tested BIR3 inhibitors or Caspase-9 rescuers is calculated from the percentage of Caspase-9 reactivation in the mixtures containing serially diluted concentrations of tested compound. Typically, 10-point curves are generated for such EC50 determination.
Relief of BIR3-mediated Caspase-9 inhibition by BIR3 inhibitors was assayed by measuring Caspase-9 reactivation using the fluorogenic substrate Ac-LEHD-7-amido-4-methylcoumarin. A truncated form of human Caspase-9 that lacks the N-terminal Caspase recruitment domain (EPro-Caspase-9 or p35/p12) was used in the assay. This form of the enzyme has the full catalytic activity and the same substrate specificity as the full-length protein in the Apaf-1/Cytochrome C/dATP/Caspase-9 reconstituted system. Rat or Chicken BIR3 was used in this assay. […] This mixture was incubated for 40 min to allow equilibration at 25° C., and the assay progression was subsequently followed by monitoring the formation of fluorescent 7-amido-4-methylcoumarin over time at 460 nm using an excitation wavelength of 360 nm. […] EC50 values of tested BIR3 inhibitors or Caspase-9 rescuers were calculated from the percentage of Caspase-9 reactivation in the mixtures containing serially diluted concentrations of tested compound.

For another test, the target named is BIR3 domain of rat XIAP (Rattus norvegicus, UniProt Q9R0I6). As to the kind of experiment: Fluorescence polarization assay, binding to BIR3 from rat XIAP.

SMILES strings stand for the structures. Structures can show the parent of a compound that is named as a salt. A value given as a limit tells only on which side of the number the result lay.

Chain of BIR3 domain of rat XIAP (Q9R0I6 241-355): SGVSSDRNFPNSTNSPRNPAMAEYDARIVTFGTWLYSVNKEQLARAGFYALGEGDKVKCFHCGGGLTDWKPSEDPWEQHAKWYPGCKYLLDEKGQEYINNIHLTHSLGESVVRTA
Method for BIR3 domain of rat XIAP: In fluorescence polarization assays a fluorescent probe is used. The binding affinity of compounds to BIR3 is measured by competitive displacement of a fluorescent probe using fluorescence polarization anisotropy. […] In other embodiments, the probe used is 6-(6-Hydroxy-3-oxo-3H-xanthen-9-yl)-N-(5-(2-methylamino-propionylamino)-6-oxo-6-[4-(1,2,3,4-tetrahydro-naphthalen-1-ylcarbamoyl)-thiazolidin-3-yl]-hexyl)-isophthalamic acid.
The binding affinity of compounds provided herein for rat BIR3 was measured by competitive displacement of a fluorescent probe using fluorescence polarization anisotropy. […] Control conditions were set up on each plate and include free probe 1 alone (5 nM), fully bound probe (5 μM BIR3+5 nM probe 1) and binding buffer blank. The-EC50 of binding was computed from a 4-parameter fit of the measured anisotropies using the SoftMax Pro 4.6 software package (Molecular Dynamics, Sunnyvale, Calif.).
Alternatively, probe 1 was substituted with probe 2: 6-(6-Hydroxy-3-oxo-3H-xanthen-9-yl)-N-{5-(2-methylamino-propionylamino)-6-oxo-6-[4-(1,2,3,4-tetrahydro-naphthalen-1-ylcarbamoyl)-thiazolidin-3-yl]-hexyl}-isophthalamic acid, for rat BIR3 and the concentrations of assay components changed. […] Controls were adjusted accordingly.

Consider `CNC(C)C(=O)NC(C(=O)N1C(C(=O)NC2CCCc3ccccc32)CC2CCCCC21)C(C)C` (stereo not shown) [1-[3-Methyl-2-(2-methylamino-propionylamino)-butyryl]-octahydro-indole-2-carboxylic acid (1,2,3,4-tetrahydro-naphthalen-1-yl)-amide], for which the EC50 (in test [1]; at BIR3 domain of rat XIAP) was below 1000 nM in each case.
Regarding `CNC(C)C(=O)NC1CCc2cccc3c2N(C1=O)C(C(=O)NC1CCCc2ccccc21)C3` (stereo not shown) [5-(2-Methylamino-propionylamino)-4-oxo-1,2,4,5,6,7-hexahydro-azepino[3,2,1-hi]indole-2-carboxylic ′acid (1,2,3,4-tetrahydro-naphthalen-1-yl)-amide], the EC50 is 1000 to 10000 nM in test [1] and below 1000 nM at BIR3 domain of rat XIAP.
Taken in the same sequence, the figures for `CNC(C)C(=O)NC(C(=O)N1CS(=O)(=O)CC1C(=O)NC1CCCc2ccccc21)C(C)C` (stereo not shown) [3-[3-Methyl-2-(2-methylamino-propionylamino)-butyryl]-1,1-dioxo-1l6-thiazolidine-4-carboxylic acid (1,2,3,4-tetrahydro-naphthalen-1-yl)-amide] were below 1000 nM and below 1000 nM.
Taken in the same sequence, the figures for `CNC(C)C(=O)NC(C(=O)NC(CCCCNS(C)(=O)=O)C(=O)NC1CCCc2ccccc21)C(C)C` (stereo not shown) [6-Methanesulfonylamino-2-[3-methyl-2-(2-methylamino-propionylamino)-butyrylamino]-hexanoic acid (1,2,3,4-tetrahydro-naphthalen-1-yl)-amide] were below 1000 nM and below 1000 nM.
As to `CNC(C)C(=O)NC(C(=O)N(CCc1ccccc1)CC(=O)NC1CCCc2ccccc21)C(C)(C)C` (stereo not shown) [3,3-Dimethyl-2-(2-methylamino-propionylamino)-N-phenethyl-N-[(1,2,3,4-tetrahydro-naphthalen-1-ylcarbamoyl)-methyl]-butyramide TFA salt], the EC50 is above 10000 nM in test [1] and 1000 to 10000 nM on BIR3 domain of rat XIAP.
On the same counts, the results for `CNC(C)C(=O)NC(C(=O)NC(COCc1ccccc1)C(=O)NC1CCCc2ccccc21)C(C)C` (stereo not shown) [N-[2-Benzyloxy-1-(1,2,3,4-tetrahydro-naphthalen-1-ylcarbamoyl)-ethyl]-3-methyl-2-(2-methylamino-propionylamino)-butyramide] are 1000 to 10000 nM and below 1000 nM.
Turning to `CNC(C)C(=O)NC(C(=O)NC(CCCCNS(=O)(=O)Cc1ccccc1)C(=O)NC1CCCc2ccccc21)C(C)C` (stereo not shown) [2-[3-Methyl-2-(2-methylamino-propionylamino]-butyrylamino]-6-phenylmethanesulfonylamino-hexanoic acid (1,2,3,4-tetrahydro-naphthalen-1-yl)-amide], the EC50 (in test [1]; at BIR3 domain of rat XIAP) was below 1000 nM in each case.
For `CNC(C)C(=O)NC(C(=O)NC(CCCCN(C)C)C(=O)NC1CCCc2ccccc21)C(C)C` (stereo not shown) [6-Dimethylamino-2-[3-methyl-2-(2-methylamino-propionylamino)-butyrylamino]-hexanoic acid (1,2,3,4-tetrahydro-naphthalen-1-yl)-amide], the EC50 (in test [1]; at BIR3 domain of rat XIAP) was below 1000 nM in each case.
